Legend:
[1] = tested on: ES-MSC; experiment: ES-MSC on pneumatospun collagen type I scaffold, in vitro culture; format: cell-based, human; details: 6 weeks in chondrogenic medium
Source text: (§1) ES-MSC derived from treatment with ALK-5 inhibitor SB525334, as described in Example 1, produced meniscus cartilage-like tissues when seeded upon blow spun collagen scaffolds in in vitro and in vivo.

[2] = tested on: ES-MSC; experiment: ES-MSC seeded scaffolds implanted subcutaneously into a nude mouse; format: in vivo; details: 1 week in vitro, then subcutaneous in nude mouse for 5 weeks
Source text: as §1

[3] = tested on: ESC cell lines (H9, AND-1, AND-2, and SHEF-1); details: monolayer cultures on Matrigel coated flasks, before sorting; cited from earlier work
[4] = tested on: H9 ESC; experiment: Gene expression profiling of ES-MSC relative to undifferentiated ESC; format: cell-based, human
Experimental: An overview of the differentiation process is provided in FIG. 1, panel K. To create cell clusters or embryoid bodies of uniform size, ESCs were removed from CellStart culture using Accutase® for 2-5 minutes until single cells were observed. Cells (2.5-3×10^5 cells per ml) were suspended in StemPro human ESC serum free medium (ThermoFisher) with 10 μM Y-27632 (EMD Chemicals, Gibbstown, NJ) and 40 ng/ml FGF (Life Technologies, Carlsbad, CA) in a 125 ml spinner culture flask (Corning Inc., Corning, NY) on a magnetic stirrer (CimarecTM Biosystem Slow-Speed Stirrer, ThermoFisher) at 70 rpm for 24 hours at 37° C. with 5% CO2 to form small cell clusters (minimum total cells was 7.5×10^6 in 30 ml). After 24 hours, the cell clusters were suspended at 2.5-3×10^5 cells per ml in ultra-low adherent 6 well plates (Corning) in […] free medium (ThermoFisher) supplemented with 2 mM L-glutamine (ThermoFisher Scientific), 50 μg/ml Ascorbic acid (Stemcell Technologies, Vancouver, Canada) and 1.8 μl/ml ITS-G (100× Insulin-Transferrin-Selenium; ThermoFisher); termed as “complete SP-34 medium”. […] Total RNA was extracted from using the RNeasy kit as recommended by the manufacturer (QIAGEN, Valencia, CA). The High-Capacity cDNA Reverse Transcription Kit (Applied Biosystems, Foster City, California) kit was used to make cDNA and the following verified primer/probe assays were purchased from Applied Biosystems. Expression of the following genes was quantified POU5F1/OCT4 and SOX2 (for pluripotency); FOXA1 and SOX17 (for endoderm); NES and PAX6 (for ectoderm); NKX2-5, MSX1, NCAM1, and SOX9 (for mesoderm); ITGB1/CD29 (for MSC phenotype); and COL1A1, COL2A1, COL10A1, COMP, ACAN, and SOX9 and RUNX2 (for chondrogenesis). Gene expression was normalized to GAPDH as previously reported. Undifferentiated ESC served as a baseline for relative changes in gene expression in differentiated ES-MSC cells. Differentiated ES-MSC cells in monolayer served as baseline for changes in gene expression in pellets or hydrogel constructs.

[5] = tested on: H9 ESC; experiment: Flow cytometry of MSC surface markers after ESC to MSC differentiation with ALK-5 inhibitor; format: cell-based, human; details: H9 ES-MSC
Experimental: An overview of the differentiation process is provided in FIG. 1, panel K. To create cell clusters or embryoid bodies of uniform size, ESCs were removed from CellStart culture using Accutase® for 2-5 minutes until single cells were observed. […] After 24 hours, the cell clusters were suspended at 2.5-3×10^5 cells per ml in ultra-low adherent 6 well plates (Corning) in StemPro-34 serum free medium (ThermoFisher) supplemented with 2 mM L-glutamine (ThermoFisher Scientific), 50 μg/ml Ascorbic acid (Stemcell Technologies, Vancouver, Canada) and 1.8 μl/ml ITS-G (100× Insulin-Transferrin-Selenium; ThermoFisher); termed as “complete SP-34 medium”.
The medium was changed every 2 days by removing cell clusters into 15 ml sterile tubes and permitted to gravity settle for 10 minutes at room temperature. Most of the media was removed using a pipette to leave approximately 300-500 μl of medium. Freshly made medium (with the appropriate ALK5 inhibitor or DMSO) was replaced at the same volumes and well number into new ultra-low adherent plates.
After treatment with the appropriate ALK5 inhibitor, the cell clusters were removed by gravity settling and suspended in complete SP-34 medium supplemented with bFGF 20 ng/ml (without any ALK-5 inhibitor or DMSO) and transferred onto fibronectin (FN) coated (10 μg/ml; Fibronectin from human plasma, Sigma-Aldrich, St. Louis, MO) T75 cm^2 flasks (passage zero (P0)). The emerging cells and remaining cell clusters were exposed to Accutase® for 5-10 minutes, gently triturated and counted. The cells were seeded at […] in T75 FN coated flask (P1) and medium changed every 3-4 days until 80-90% confluence. At this point, the cells were detached using Accutase® for continued culture, screened for surface marker phenotype characterization (flow cytometry), placed into 3D cultures to assess chondrogenic differentiation capacity, or preserved in liquid nitrogen.
Cells were detached using Accutase®, washed and suspended in FACS buffer at a concentration of 0.2×10^6 cells per 100 μl. A panel of CD molecules were used, each with the following fluorochromes: CD34-FITC, CD45-BV510, CD73-APC (BioLegend, San Diego, California) CD90-PE-Cy7, and CD105-BV650 (BD Biosciences, Franklin Lakes, New Jersey). Matching isotype control IgGs with the same fluorochrome conjugates were used for background gating. […] Data was acquired with the Novocyte flow cytometer (ACEA Biosciences Inc. San Diego, CA) and analyzed using FlowJo software (version 10, FlowJo, LLC, Ashland, OR) to determine percentage positive signal for each molecule relative to isotype background non-specific signal controls.

[6] = tested on: HUES9 ESC; details: 10 μM SB431542, fibronectin, monolayer with 10% FBS; cited from earlier work
[7] = tested on: HADC100 ESC; experiment: Gene expression of ES-MSC in monolayer culture; format: cell-based, human; details: comparison of ALK5 inhibitors
Experimental: An overview of the differentiation process is provided in FIG. 1, panel K. To create cell clusters or embryoid bodies of uniform size, ESCs were removed from CellStart culture using Accutase® for 2-5 minutes until single cells were observed. Cells (2.5-3×10^5 cells per ml) were suspended in StemPro human ESC serum free medium (ThermoFisher) with 10 μM Y-27632 (EMD Chemicals, Gibbstown, NJ) and 40 ng/ml FGF (Life Technologies, Carlsbad, CA) in a 125 ml spinner culture flask (Corning Inc., Corning, NY) on a magnetic stirrer (CimarecTM Biosystem Slow-Speed Stirrer, ThermoFisher) at 70 rpm for 24 hours at 37° C. with 5% CO2 to form small cell clusters (minimum total cells was 7.5×10^6 in 30 ml). After 24 hours, the cell clusters were suspended at 2.5-3×10^5 cells per ml in ultra-low adherent 6 well plates (Corning) in […] free medium (ThermoFisher) supplemented with 2 mM L-glutamine (ThermoFisher Scientific), 50 μg/ml Ascorbic acid (Stemcell Technologies, Vancouver, Canada) and 1.8 μl/ml ITS-G (100× Insulin-Transferrin-Selenium; ThermoFisher); termed as “complete SP-34 medium”. […] Expression of the following genes was quantified POU5F1/OCT4 and SOX2 (for pluripotency); FOXA1 and SOX17 (for endoderm); NES and PAX6 (for ectoderm); NKX2-5, MSX1, NCAM1, and SOX9 (for mesoderm); ITGB1/CD29 (for MSC phenotype); and COL1A1, COL2A1, COL10A1, COMP, ACAN, and SOX9 and RUNX2 (for chondrogenesis). […]

[8] = ES-MSC relative to undifferentiated ESC

Cc1cccc(-c2[nH]c(C(C)(C)C)nc2-c2ccc3nccnc3c2)n1 [SB525334]
Safranin O staining (GAG deposition) on collagen scaffold [1]: extensive GAG deposition | meniscus cartilage-like tissue, Safranin O staining [2]: strong Safranin O staining profile

NC(=O)c1ccc(-c2nc(-c3ccc4c(c3)OCO4)c(-c3ccccn3)[nH]2)cc1 [SB431542]
CD73+CD90+CD34− cell population [3]: 42% | expression of SOX9 and COL2A1 (chondroprogenitor phenotype) [4, 8]: Increased expression | expression of mesoderm specific markers (NCAM1, MSX1, NKX2-5) and MSC marker (ITGB1) [4, 8]: significantly upregulated | expression of pluripotent markers POU5F1 (OCT4) and SOX2 ([4]; H9 ES-MSC relative to undifferentiated ESC): significantly down regulated | CD73 positive cells ([5]; SB431542 10 μM 10 days, N=5): 99±1% | CD90 positive cells ([5]; SB431542 10 μM 10 days, N=5): 99±1% | CD105 positive cells ([5]; SB431542 10 μM 10 days, N=5): 94±4% | triple positive for CD73, CD90 and CD105 ([5]; co-expression analysis): 92±9% | enrichment for MSC markers CD44, CD73, CD146, and CD166 [6]: highly enriched | generating mesoderm markers (NCAM1, SOX9) and increasing COL2A1 expression [7]: superior
